Measured values reported in US10287234B2, “Triglyceride and use thereof” (NITTO PHARMACEUTICAL INDUSTRIES, LTD., priority 2015, dated 2019).

Assay: State (liquid or solid) at standard temperature by visual observation
Assay type: physicochemical
Protocol: Whether compounds (I) of the present invention of Examples 1-3, trilinolein of Comparative Example 1 and HYA of Comparative Example 2 are liquid or solid at standard temperature (about 20° C.) was confirmed by visual observation.

| State at standard temperature (about 20° C.) | Compound |
| --- | --- |
| liquid | CCCCC/C=C\C/C=C\CCCCCCCC(=O)OC(COC(=O)CCCCCCCCC(O)C/C=C\CCCCC)COC(=O)CCCCCCCCC(O)C/C=C\CCCCC (stereo not drawn) [Ex. 2, Di(10-hydroxy-cis-12-octadecenoyl)(cis, cis-9,12-octadecadienoyl)glycerol] |
| solid | CCCCC/C=C\CC(O)CCCCCCCCC(=O)O (stereo not drawn) [compound 2, 10-Hydroxy-cis-12-octadecenoic Acid, reference compound] |

More lines, now with the values behind:

| Compound | State at standard temperature (about 20° C.) |
| --- | --- |
| Tri(10-hydroxy-cis-12-octadecenoyl)glycerol [Ex. 3] | liquid |
| CCCCC/C=C\C/C=C\CCCCCCCC(=O)OCC(COC(=O)CCCCCCCCC(O)C/C=C\CCCCC)OC(=O)CCCCCCC/C=C\C/C=C\CCCCC (stereo not drawn) [Ex. 1, Di(cis, cis-9,12-octadecadienoyl)(10-hydroxy-cis-12-octadecenoyl)glycerol] | liquid |
| CCCCC/C=C\C/C=C\CCCCCCCC(=O)OCC(COC(=O)CCCCCCC/C=C\C/C=C\CCCCC)OC(=O)CCCCCCC/C=C\C/C=C\CCCCC [compound 1, Trilinolein, reference compound] | liquid |
